# From patent US7914800B2, “LTB4 as vaccine adjuvant” (priority 2001, dated 2011)
# “Also recorded” adds a separate entry of the source.
# Legend:
# Influenza = assay: Anti-Influenza antibody generation in BALB/c mice following immunization with the Fluviral vaccine (ELISA); format: in vivo; settings: intramuscular
# Procedure: To test the adjuvant potential of LTB4, groups of 10 BALB/c mice were immunized once by intramuscular injection with 5 μl of the commercial “Fluviral” vaccine preparation in combination with saline or 1 ng of LTB4. Fourteen days following immunization, mice were bled and sera analyzed for specific anti-Influenza IgG antibodies by ELISA.
# Adult (6-8 weeks) BALB/c female mice were immunized by intramuscular injection with 5 μl of the commercial Influenza (Fluviral) vaccine in combination or not with 1 ng of LIB4. Fourteen days later, mice were bled by cardiac puncture and sera obtained. Anti-Influenza antibodies were quantitated by enzyme-linked immunosorbent assay (ELISA). Wells of a 96-well plate were coated with the Fluvial vaccine preparation ( 1/100 dilution) in 0.1 M carbonate buffer (pH 9.0) by overnight incubation at 4° C. Wells were washed with Tris-buffered saline with 0.1% Tween-20 (TBS-T) followed by the addition of 100 μl of increasing dilutions of the sera to be tested. […] After 30 minutes, the absorbance (405 nm) from each well was recorded using an ELISA plate reader. The values, expressed as optical density (OD), were plotted against the reciprocal of serum dilution.
# [1] = tested on: mycobacterium tuberculosis; format: in vivo, BALB/c mice; settings: 1-10 ng LTB4 with BCG vaccine, intradermal on days 0, 24, 68 and 145; sera at day 160
# B lymphocytes = settings: cited from earlier work
# murine CMV [2] = assay: Neutralizing CMV antibodies in sera of CMV-infected mice (plaque reduction on mouse embryonic fibroblast); format: in vivo, BALB/c mice; settings: the 7 positive sera of LTB4 treated mice; 1/100 dilution; 175 pfu murine CMV
# Procedure: Lastly, the sera from each mouse infected with CMV and treated with saline or LTB4 (see above) were analyzed for neutralizing antibodies. Briefly, a 1/100 dilution of individual serum was incubated with 175 pfu of murine CMV for 1 hour on ice. Samples (sera-virus) were then added to mouse embryonic fibroblast and incubated at 37° C. for 2 hour. Unadsorbed viruses were removed and cells were overlaid with methyl cellulose and incubated for 4 days at 37° C. in a humidified atmosphere with 5% CO2. At this time cells were fixed, colored with violet crystal and the number of plaques (CMV infected foci) counted. […] Uninfected mice had no neutralizing antibodies against CMV, as expected. […] We next compared the neutralizing activity of sera that tested positive for CMV neutralization. The 2 sera of infected mice that received saline were able to reduce, in average, CMV infectivity by 24%. In contrast, the 7 sera of LTB4 treated-mice were found capable of reducing CMV infectivity by 45%, almost twice the activity of control mice.
# The serum from each mouse, described above, were tested for their CMV neutralizing activity. Briefly, a 1/100 dilution of individual serum was incubated with 175 pfu of murine CMV for 1 hour on ice. […] At this time cells were fixed, colored with violet crystal and the number of plaques (CMV infected foci) counted. […]
# murine CMV [3] = assay: Total anti-CMV antibodies following acute CMV infection in BALB/c mice (ELISA); format: in vivo; settings: LTB4 5 μg/kg i.p. 3 times a week for 12 weeks from day 5 post-infection
# Procedure: Our next series of experiments were designed to test the potential of LTB4 to modulate antibody response during an acute CMV infection. BALB/c mice were infected by intraperitoneal (i.p.) injection with 10,000 pfu of murine CMV. On day 5 post-infection, mice (n=10) received saline by i.p. injection or LTB4 (5 μg/kg) (n=9) by i.p. injection 3 times a week for 12 weeks. At that time, sera was taken from each mouse and tested for anti-CMV specific antibodies.
# Adult (6-8 weeks) female BALB/c mice were infected by intraperitoneal (I.P.) injection with 1×10^4 pfa of murine CMV. Starting on the fifth day post-infection, mice were injected with saline or LTB4 (5 μg/kg) by I.P. injection at a frequency of three times a week for 12 weeks. Mice were then bled and sacrificed. Total anti-CMV antibodies from each mouse were quantified by ELISA. ELISA plates were coated with a lysates from CMV-infected fibroblasts as the source of CMV antigens. One μg of protein lysates were added to each well and incubated-overnight at 4° C. After several washes with TBS-T, non-specific sites were blocked by the addition of saline containing 10% fetal bovine serum for one hour at room temperature. […] After 30 minutes, the absorbance (405 nm) from each well was recorded using an ELISA plate reader. The values, expressed as optical density (OD), were plotted against the reciprocal of serum dilution. […]
structure (smiles),measurement,setting,value
"CCCCC/C=C\C[C@@H](O)/C=C/C=C/C=C\[C@@H](O)CCCC(=O)O [LTB4, Leukotriene B4]",anti-Influenza IgG antibody response (ELISA OD) versus vaccine + saline,"Influenza; 1 ng LTB4 with 5 μl Fluviral vaccine, once, sera at day 14, p<0.05 in all three dilutions",greater anti-Influenza antibody response; also recorded: significantly higher anti-Influenza antibody response
same,optimal dose of LTB4 as adjuvant,Influenza; with 5 μl Fluviral vaccine,1 ng
same,anti-BCG antibodies (ELISA OD) versus BCG + saline,[1],higher levels of anti-BCG antibodies; also recorded: greater reactivity against mycobacterium antigens
same,effect on B cell proliferation or immunoglobulin synthesis (IgG or IgM),"B lymphocytes; LTB4 by itself, in absence of exogenous cytokines or stimuli, in vitro",no effects
same,effect on synthesis of immunoglobulin from B lymphocytes,B lymphocytes; conflicting paper (Rola-Plecszczynski 1982),inhibitory effects
same,reduction of CMV infectivity by sera positive for CMV neutralization (average),murine CMV [2],45%
same,total anti-CMV antibodies (ELISA OD) versus saline-treated group,murine CMV [3],more anti-CMV antibodies
